Data taken from US12479847B2 (DANA-FARBER CANCER INSTITUTE, INC., priority 2019, dated 2025).
Where two headings read alike, the source gives them in different places.

Columns and labels:
Test in all cases: KINOMEscan (ScanMAX) kinase profiling
Format in all cases: binding
panel of 468 kinases [1] = biological target: T1, panel of 468 kinases (Homo sapiens, UniProt P00519, E255K); settings: ABL1(E255K)-phosphorylated; 1 μM; read-out: % control
T1 construct: purchased KINOMEscan (ScanMAX) service
T1 sequence (P00519 whole entry E255K): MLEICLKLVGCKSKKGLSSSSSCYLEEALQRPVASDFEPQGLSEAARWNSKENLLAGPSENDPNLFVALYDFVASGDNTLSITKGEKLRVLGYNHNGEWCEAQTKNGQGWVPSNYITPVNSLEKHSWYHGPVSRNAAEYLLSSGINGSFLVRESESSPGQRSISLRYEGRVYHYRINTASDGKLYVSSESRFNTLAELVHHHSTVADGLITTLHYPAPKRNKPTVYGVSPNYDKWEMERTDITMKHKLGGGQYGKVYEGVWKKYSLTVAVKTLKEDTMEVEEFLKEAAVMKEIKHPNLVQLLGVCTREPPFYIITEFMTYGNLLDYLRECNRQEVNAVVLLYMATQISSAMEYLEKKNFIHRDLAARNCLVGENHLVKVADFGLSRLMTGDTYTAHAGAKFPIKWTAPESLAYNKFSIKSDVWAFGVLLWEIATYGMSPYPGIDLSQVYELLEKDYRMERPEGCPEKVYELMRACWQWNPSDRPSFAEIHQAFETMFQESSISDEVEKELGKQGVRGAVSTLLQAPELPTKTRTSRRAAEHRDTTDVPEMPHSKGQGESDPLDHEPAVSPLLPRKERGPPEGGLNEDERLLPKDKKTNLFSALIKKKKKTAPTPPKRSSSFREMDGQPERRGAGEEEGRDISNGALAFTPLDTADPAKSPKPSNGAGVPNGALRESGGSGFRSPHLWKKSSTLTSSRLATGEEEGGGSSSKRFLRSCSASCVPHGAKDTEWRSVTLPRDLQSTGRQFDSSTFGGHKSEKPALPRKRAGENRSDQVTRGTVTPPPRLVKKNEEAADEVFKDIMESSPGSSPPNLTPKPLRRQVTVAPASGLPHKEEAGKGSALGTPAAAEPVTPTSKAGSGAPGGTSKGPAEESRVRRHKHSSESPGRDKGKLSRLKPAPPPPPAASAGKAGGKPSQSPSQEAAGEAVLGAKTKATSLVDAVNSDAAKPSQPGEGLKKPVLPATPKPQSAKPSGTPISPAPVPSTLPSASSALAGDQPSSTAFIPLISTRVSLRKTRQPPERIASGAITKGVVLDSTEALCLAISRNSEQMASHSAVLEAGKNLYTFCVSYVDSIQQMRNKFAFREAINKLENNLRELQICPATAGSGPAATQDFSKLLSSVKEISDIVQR

panel of 468 kinases [2] = biological target: T2, panel of 468 kinases (Homo sapiens, UniProt P24723); settings: PRKCH; 1 μM; read-out: % control
T2 construct: purchased KINOMEscan (ScanMAX) service
T2 sequence (P24723 whole entry): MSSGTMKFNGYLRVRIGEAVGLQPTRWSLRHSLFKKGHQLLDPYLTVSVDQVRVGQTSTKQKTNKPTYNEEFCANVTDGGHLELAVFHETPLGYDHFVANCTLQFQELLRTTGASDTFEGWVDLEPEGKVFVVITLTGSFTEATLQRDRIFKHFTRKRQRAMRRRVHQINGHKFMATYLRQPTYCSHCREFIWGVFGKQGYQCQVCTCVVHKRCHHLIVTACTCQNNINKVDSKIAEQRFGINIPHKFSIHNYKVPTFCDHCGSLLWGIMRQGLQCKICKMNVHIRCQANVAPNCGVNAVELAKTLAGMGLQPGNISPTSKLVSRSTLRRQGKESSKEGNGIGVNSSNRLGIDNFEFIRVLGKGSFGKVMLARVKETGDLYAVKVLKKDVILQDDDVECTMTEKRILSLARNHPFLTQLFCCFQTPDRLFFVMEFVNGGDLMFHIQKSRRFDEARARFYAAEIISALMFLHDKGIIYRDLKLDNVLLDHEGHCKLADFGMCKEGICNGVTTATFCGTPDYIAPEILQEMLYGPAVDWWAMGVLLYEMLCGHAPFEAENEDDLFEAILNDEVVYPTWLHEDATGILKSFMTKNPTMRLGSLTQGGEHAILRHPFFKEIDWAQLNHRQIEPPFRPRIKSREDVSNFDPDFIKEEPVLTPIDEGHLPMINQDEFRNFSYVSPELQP

panel of 468 kinases [3] = biological target: T3, panel of 468 kinases (Homo sapiens, UniProt P42336, E545A); settings: PIK3CA(E545A); 1 μM; read-out: % control
T3 construct: purchased KINOMEscan (ScanMAX) service
T3 sequence (P42336 whole entry E545A): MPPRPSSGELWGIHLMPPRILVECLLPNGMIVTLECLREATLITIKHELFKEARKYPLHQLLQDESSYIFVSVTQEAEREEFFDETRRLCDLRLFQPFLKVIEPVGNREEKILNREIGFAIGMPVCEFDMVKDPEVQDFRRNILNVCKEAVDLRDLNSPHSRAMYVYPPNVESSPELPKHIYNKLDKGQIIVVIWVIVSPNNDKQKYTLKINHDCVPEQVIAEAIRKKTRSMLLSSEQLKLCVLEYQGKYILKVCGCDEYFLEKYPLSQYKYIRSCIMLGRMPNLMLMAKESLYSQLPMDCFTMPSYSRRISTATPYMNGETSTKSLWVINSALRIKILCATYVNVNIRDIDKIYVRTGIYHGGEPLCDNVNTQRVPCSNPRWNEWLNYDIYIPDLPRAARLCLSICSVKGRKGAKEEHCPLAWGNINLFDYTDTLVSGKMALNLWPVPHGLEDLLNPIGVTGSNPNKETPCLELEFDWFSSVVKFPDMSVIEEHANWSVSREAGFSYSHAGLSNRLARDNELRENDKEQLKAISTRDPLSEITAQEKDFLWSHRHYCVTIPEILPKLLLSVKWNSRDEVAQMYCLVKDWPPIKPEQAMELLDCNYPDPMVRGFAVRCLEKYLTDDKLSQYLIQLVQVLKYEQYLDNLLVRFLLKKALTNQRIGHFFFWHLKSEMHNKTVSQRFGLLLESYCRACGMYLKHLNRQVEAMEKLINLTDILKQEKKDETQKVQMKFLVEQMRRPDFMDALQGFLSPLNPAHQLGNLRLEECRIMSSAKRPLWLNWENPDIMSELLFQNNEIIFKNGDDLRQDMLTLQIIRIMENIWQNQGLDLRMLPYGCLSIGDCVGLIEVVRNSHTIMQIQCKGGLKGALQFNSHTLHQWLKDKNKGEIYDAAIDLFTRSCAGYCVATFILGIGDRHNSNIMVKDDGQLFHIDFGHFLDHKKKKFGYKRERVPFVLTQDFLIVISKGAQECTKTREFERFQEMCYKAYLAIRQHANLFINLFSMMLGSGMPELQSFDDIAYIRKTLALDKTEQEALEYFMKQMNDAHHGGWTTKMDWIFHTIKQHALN

panel of 468 kinases [4] = biological target: T4, panel of 468 kinases (Homo sapiens, UniProt P42345); settings: MTOR; 1 μM; read-out: % control
T4 construct: purchased KINOMEscan (ScanMAX) service

panel of 468 kinases [5] = biological target: T5, panel of 468 kinases (Homo sapiens, UniProt P53778); settings: p38-gamma; 1 μM; read-out: % control
T5 construct: purchased KINOMEscan (ScanMAX) service
T5 sequence (P53778 1-367): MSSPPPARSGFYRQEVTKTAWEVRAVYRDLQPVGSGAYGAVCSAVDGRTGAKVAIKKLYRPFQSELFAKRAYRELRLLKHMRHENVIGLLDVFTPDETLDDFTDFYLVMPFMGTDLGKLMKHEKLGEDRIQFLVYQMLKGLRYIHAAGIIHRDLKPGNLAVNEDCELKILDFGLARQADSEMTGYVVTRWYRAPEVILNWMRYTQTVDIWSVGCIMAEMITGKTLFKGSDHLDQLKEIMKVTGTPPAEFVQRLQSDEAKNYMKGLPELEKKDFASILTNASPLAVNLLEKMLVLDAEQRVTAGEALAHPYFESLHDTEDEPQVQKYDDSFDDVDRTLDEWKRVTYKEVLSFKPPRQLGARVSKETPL

panel of 468 kinases [6] = biological target: T6, panel of 468 kinases (Homo sapiens, UniProt P57059); settings: SIK; 1 μM; read-out: % control
T6 construct: purchased KINOMEscan (ScanMAX) service
T6 sequence (P57059 whole entry): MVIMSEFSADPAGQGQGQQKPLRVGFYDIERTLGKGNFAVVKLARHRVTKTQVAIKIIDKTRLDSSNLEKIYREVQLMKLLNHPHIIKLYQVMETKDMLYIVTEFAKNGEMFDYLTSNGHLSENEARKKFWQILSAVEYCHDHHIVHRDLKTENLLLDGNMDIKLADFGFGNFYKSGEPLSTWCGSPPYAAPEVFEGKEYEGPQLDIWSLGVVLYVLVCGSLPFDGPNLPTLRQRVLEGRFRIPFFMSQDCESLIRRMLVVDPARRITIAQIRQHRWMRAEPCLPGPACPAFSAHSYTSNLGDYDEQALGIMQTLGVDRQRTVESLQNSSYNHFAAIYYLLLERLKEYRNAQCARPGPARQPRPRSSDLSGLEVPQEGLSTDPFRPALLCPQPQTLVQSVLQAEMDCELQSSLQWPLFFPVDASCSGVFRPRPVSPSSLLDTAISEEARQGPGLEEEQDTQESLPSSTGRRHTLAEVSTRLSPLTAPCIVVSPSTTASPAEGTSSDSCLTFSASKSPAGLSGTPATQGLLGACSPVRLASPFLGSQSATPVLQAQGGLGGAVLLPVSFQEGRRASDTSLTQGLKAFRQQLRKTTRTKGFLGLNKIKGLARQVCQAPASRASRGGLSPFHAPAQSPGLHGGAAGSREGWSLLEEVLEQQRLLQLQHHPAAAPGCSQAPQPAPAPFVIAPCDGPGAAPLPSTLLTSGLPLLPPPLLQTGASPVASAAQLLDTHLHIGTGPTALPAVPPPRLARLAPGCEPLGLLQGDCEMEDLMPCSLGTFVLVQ

panel of 468 kinases [7] = biological target: T7, panel of 468 kinases (Homo sapiens, UniProt Q13873); settings: BMPR2; 1 μM; read-out: % control
T7 construct: purchased KINOMEscan (ScanMAX) service
T7 sequence (Q13873 27-1038): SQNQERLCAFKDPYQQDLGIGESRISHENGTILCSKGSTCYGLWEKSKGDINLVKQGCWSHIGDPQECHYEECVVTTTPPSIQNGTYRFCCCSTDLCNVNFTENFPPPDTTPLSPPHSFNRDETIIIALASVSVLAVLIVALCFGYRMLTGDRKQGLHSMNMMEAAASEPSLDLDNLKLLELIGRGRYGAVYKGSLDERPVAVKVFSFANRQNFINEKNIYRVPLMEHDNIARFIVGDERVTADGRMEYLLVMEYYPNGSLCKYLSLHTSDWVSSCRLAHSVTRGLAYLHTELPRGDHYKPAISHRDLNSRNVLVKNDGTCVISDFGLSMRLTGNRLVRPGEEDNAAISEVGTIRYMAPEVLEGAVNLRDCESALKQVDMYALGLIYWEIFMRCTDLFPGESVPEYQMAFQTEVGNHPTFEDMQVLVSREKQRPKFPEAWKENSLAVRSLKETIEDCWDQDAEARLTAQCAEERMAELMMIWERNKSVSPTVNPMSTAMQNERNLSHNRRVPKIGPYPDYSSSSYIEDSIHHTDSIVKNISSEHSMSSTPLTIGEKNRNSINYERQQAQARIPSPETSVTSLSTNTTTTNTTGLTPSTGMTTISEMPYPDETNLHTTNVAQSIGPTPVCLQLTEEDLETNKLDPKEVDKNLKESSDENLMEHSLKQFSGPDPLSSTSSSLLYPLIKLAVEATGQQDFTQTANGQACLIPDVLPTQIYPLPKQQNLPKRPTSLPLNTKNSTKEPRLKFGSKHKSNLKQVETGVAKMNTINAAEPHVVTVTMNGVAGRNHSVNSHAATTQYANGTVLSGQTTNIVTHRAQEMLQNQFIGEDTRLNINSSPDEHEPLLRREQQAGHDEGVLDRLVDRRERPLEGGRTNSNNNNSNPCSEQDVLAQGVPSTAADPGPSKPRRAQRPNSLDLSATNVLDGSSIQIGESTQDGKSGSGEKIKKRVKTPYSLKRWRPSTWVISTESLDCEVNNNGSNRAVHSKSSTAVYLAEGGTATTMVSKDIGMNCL

panel of 468 kinases [8] = biological target: T8, panel of 468 kinases (Homo sapiens, UniProt Q14012); settings: CAMK1; 1 μM; read-out: % control
T8 construct: purchased KINOMEscan (ScanMAX) service
T8 sequence (Q14012 whole entry): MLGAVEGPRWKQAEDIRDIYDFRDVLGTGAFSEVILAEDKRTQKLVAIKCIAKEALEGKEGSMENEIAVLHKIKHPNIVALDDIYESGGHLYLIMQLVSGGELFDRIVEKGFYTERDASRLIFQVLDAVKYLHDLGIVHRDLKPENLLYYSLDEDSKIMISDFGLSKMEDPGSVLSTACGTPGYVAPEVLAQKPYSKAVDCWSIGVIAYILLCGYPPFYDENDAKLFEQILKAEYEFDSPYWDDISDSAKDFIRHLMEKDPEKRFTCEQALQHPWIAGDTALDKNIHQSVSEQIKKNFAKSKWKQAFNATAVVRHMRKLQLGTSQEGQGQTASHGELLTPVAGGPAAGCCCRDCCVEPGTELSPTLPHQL

panel of 468 kinases [9] = biological target: T9, panel of 468 kinases (Homo sapiens, UniProt Q92772); settings: CDKL2; 1 μM; read-out: % control
T9 construct: purchased KINOMEscan (ScanMAX) service
T9 sequence (Q92772 1-493): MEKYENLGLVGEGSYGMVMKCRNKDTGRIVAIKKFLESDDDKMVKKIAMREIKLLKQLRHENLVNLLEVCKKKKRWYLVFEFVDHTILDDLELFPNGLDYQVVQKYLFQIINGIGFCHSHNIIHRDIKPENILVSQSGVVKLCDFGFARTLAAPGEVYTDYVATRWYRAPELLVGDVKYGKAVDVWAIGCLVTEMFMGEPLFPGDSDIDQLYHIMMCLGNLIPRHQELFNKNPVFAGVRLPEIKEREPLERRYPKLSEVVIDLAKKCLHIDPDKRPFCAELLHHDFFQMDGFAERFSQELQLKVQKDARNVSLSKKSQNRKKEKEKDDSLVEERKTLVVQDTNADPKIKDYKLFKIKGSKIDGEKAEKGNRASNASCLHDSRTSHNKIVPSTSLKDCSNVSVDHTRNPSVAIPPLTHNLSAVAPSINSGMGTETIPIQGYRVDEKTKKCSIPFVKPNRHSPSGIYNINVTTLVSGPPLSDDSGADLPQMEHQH

panel of 468 kinases [10] = biological target: T10, panel of 468 kinases (Homo sapiens, UniProt Q9UK32); settings: 1 μM, read-out: % control
T10 construct: purchased KINOMEscan (ScanMAX) service
T10 sequence (Q9UK32 whole entry): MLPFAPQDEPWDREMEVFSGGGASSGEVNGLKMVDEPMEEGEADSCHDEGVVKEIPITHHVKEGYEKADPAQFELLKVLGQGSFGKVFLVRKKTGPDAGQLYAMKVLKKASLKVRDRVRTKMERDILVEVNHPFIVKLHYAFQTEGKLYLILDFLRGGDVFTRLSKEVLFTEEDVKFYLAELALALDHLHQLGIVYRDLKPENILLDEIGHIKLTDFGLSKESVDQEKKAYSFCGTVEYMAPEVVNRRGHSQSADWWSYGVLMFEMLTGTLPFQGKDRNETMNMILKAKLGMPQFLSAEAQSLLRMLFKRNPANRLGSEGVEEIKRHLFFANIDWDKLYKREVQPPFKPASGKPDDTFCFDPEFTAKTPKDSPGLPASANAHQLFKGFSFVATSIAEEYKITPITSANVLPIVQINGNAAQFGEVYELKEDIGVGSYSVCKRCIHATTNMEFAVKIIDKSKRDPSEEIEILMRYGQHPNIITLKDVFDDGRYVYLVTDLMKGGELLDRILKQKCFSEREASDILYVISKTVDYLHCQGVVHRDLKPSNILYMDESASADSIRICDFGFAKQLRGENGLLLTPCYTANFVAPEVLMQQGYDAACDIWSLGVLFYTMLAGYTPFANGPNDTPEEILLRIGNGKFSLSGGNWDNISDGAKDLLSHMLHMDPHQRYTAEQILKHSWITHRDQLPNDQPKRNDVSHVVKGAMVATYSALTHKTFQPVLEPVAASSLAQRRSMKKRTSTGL

panel of 468 kinases [11] = biological target: T11, panel of 468 kinases (Homo sapiens, UniProt Q9Y3S1); settings: WNK2; 1 μM; read-out: % control
T11 construct: purchased KINOMEscan (ScanMAX) service

Compound	remaining binding at 1 µM (panel of 468 kinases [1]) [%]	remaining binding at 1 µM (panel of 468 kinases [2]) [%]	remaining binding at 1 µM (panel of 468 kinases [3]) [%]	remaining binding at 1 µM (panel of 468 kinases [4]) [%]	remaining binding at 1 µM (panel of 468 kinases [5]) [%]	remaining binding at 1 µM (panel of 468 kinases [6]) [%]	remaining binding at 1 µM (panel of 468 kinases [7]) [%]	remaining binding at 1 µM (panel of 468 kinases [8]) [%]	remaining binding at 1 µM (panel of 468 kinases [9]) [%]	remaining binding at 1 µM (panel of 468 kinases [10]; RSK4(Kin.Dom.1-N-terminal)) [%]	remaining binding at 1 µM (panel of 468 kinases [10]; RSK4(Kin.Dom.2-C-terminal)) [%]	remaining binding at 1 µM (panel of 468 kinases [11]) [%]
CNc1nc(Nc2ccc(C(=O)N3CCC(N4CCOCC4)CC3)c3c2OCO3)nc2[nH]cc(Cl)c12 [Compound 75, (7-((5-chloro-4-(methylamino)-7H-pyrrolo[2,3-d]pyrimidin-2-yl)amino)benzo[d][1,3]dioxol-4-yl)(4-morpholinopiperidin-1-yl)methanone]	100	91	100	79	91	100	92	75	100	86	100	69
CNc1nc(Nc2ccc(S(=O)(=O)N3CCC(N4CCOCC4)CC3)cc2OC)nc2[nH]cc(Cl)c12 [Compound 12, 5-chloro-N2-(2-methoxy-4-((4-morpholinopiperidin-1-yl)sulfonyl)phenyl)-N4-methyl-7H-pyrrolo[2,3-d]pyrimidine-2,4-diamine]	92	97	100	67	100	100	97	100	100	96	99	62
CNc1nc(Nc2ccc(P3(=O)CCN(C4CCOCC4)CC3)cc2OC)nc2[nH]cc(Cl)c12 [Compound 77, 4-(4-((5-chloro-4-(methylamino)-7H-pyrrolo[2,3-d]pyrimidin-2-yl)amino)-3-methoxyphenyl)-1-(tetrahydro-2H-pyran-4-yl)-1,4-azaphosphinane 4-oxide]	100	100	100	84	98	100	85	67	100	92	77	71
